Experimental data taken from ChEMBL document CHEMBL5143555, “Potentiating the intracellular killing of Staphylococcus aureus by dihydroquinazoline analogues as NorA efflux pump inhibitor” (Bioorg Med Chem, 2022).
Converted amounts (≈) assume the structure as drawn. The source made the active and inactive calls. No cut-off for these calls is given here.

Assays:
[1] = test system: Staphylococcus aureus; test: Bactericidal activity against Staphylococcus aureus 1199B assessed as log reduction in bacterial count at 50 ug/mL measured after 8 hrs by time-kill kinetics assay; type: functional; conditions: dose 50 µg/ml
[2] = test system: Staphylococcus aureus; test: Antibacterial activity against Staphylococcus aureus 1199B measured after 24 hrs by Muller Hinton broth based MTT assay; type: functional
[3] = test system: Staphylococcus aureus; test: Antibacterial activity against Staphylococcus aureus 1199 measured after 24 hrs by Muller Hinton broth based MTT assay; type: functional
[4] = test system: Staphylococcus aureus; test: Antibacterial activity against Staphylococcus aureus K1758 measured after 24 hrs by Muller Hinton broth based MTT assay; type: functional
[5] = target: T1, Quinolone resistance protein NorA (Staphylococcus aureus) (UniProt P0A0J7); test: Inhibition of NorA in Staphylococcus aureus 1199B infected human THP-1 cells assessed as potentiation of norfloxacin-induced bactericidal activity by measuring reduction in bacterial count at 1.7 to 3.4 ug/ml measured after 24 hrs relative to control; type: cell-based; conditions: dose 1.7-3.4 µg/ml
T1 sequence (whole entry): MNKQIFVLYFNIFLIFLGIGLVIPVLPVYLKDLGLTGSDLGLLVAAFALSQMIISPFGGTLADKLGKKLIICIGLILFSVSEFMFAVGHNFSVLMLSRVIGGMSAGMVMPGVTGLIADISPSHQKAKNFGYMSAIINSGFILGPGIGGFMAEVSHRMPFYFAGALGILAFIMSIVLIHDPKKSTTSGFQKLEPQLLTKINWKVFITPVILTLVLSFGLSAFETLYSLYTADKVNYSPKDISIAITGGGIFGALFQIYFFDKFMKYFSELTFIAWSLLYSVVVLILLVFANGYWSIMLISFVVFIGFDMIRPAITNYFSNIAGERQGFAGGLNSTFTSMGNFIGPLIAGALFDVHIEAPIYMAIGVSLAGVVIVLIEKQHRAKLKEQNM

[6] = test system: Staphylococcus aureus; test: Bactericidal activity against Staphylococcus aureus 1199B assessed as bacterial count at 3.1 ug/mL measured after 24 hrs by time-kill kinetics assay; type: functional; conditions: dose 3.1 µg/ml
[7] = test system: Staphylococcus aureus; test: Bactericidal activity against Staphylococcus aureus 1199B at 50 ug/mL by time-kill kinetics assay; type: functional, organism-based; conditions: dose 50.0 µg/ml
[8] = test system: Staphylococcus aureus; test: Up regulation of NorA gene expression in Staphylococcus aureus 1199B at 1.55 ug/ml measured after 2 hrs by qRT-PCR analysis relative to control; type: functional; conditions: dose 1.55 µg/ml

Structure (SMILES) | Activity [1] | MIC [2] | MIC [3] | MIC [4] | fold change (FC) [5] | Activity [6] | inhibition [7] | fold change (FC) [8]
CC[n+]1c(-c2ccccc2)c2cc(N)ccc2c2ccc(N)cc21.[Br-] [HOMIDIUM BROMIDE] | >3 log10CFU/ml | 50 µg/mL | – | – | – | – | – | –
CN[C@H](CC(C)C)C(=O)N[C@H]1C(=O)N[C@@H](CC(N)=O)C(=O)N[C@H]2C(=O)N[C@H]3C(=O)N[C@H](C(=O)N[C@H](C(=O)O)c4cc(O)cc(O)c4-c4cc3ccc4O)[C@H](O)c3ccc(c(Cl)c3)Oc3cc2cc(c3O[C@@H]2O[C@H](CO)[C@@H](O)[C@H](O)[C@H]2O[C@H]2C[C@](C)(N)[C@H](O)[C@H](C)O2)Oc2ccc(cc2Cl)[C@H]1O [VANCOMYCIN] | – | 1.7 µg/mL (≈ 1.17 µM) | 0.42 µg/mL (≈ 0.29 µM) | 0.1 µg/mL (≈ 0.069 µM) | 2 | – | – | –
CCn1cc(C(=O)O)c(=O)c2cc(F)c(N3CCNCC3)cc21 [NORFLOXACIN] | – | 50 µg/mL (≈ 157 µM) | 1.56 µg/mL (≈ 4.89 µM) | 0.2 µg/mL (≈ 0.626 µM) | – | 6 log10CFU/ml | Active | 0.076
